Assay results as given in PMC9965165, “3D-Printing of Capsule Devices as Compartmentalization Tools for Supported Reagents in the Search of Antiproliferative Isatins” (Pharmaceuticals, 2023).
Read-outs that look alike come from different tables or passages of the source.

Key:
[1] = tested on: murine 3T3 Balb fibroblast cells; assay: CCK8 antiproliferation / cytotoxicity assay in 3T3 Balb fibroblasts; type: cell-based; conditions: CCK-8 assay, murine fibroblast 3T3 Balb cells
Experimental: (§1) The cytotoxic activity of these new synthesized isatin derivatives was evaluated by means of the CCK8 antiproliferation assay in vitro in two different cell lines: cancerous cervical HeLa and murine 3T3 Balb fibroblast cells. The latter cell line is typically used to analyze the potential toxicity of (nano)materials thanks to their sensitivity. […] It can be observed that fibroblast cells were more sensitive to the presence of isatin derivatives than the cancerous cells in general HeLa ones, probably related to the enhanced replication rate of the tumoral cells. Analysis of the experimental data shown in Figure 6 allowed the determination of IC50 values (see Table 3 and Table 4). […] [65, 66] Compounds 26 and 33 are, therefore, new promising hits for further development.
(§2) Cervical HeLa cancer cells and 3T3 mouse fibroblasts from Cell Biolabs (San Diego, CA, USA) were grown in standard culture conditions (5% CO2 at 37 °C) in DMEM supplemented with 10% (v/v) FBS, 2 mM L-glutamine, 1% (v/v) penicillin/streptomycin, 1 mM sodium pyruvate, and 0.1 mM MEM nonessential amino acids (NEAA).
(§3) Cytotoxicity of the synthesized isatin-based compounds was tested in vitro by means of the CCK-8 cytotoxicity assay. Cancerous cervical HeLa and 3T3 Balb fibroblasts cells were seeded into 96-well plates (1.0 × 10^4 cells/well) and grown for 24 h at an optical confluence of 80–90% under standard culture conditions in 100 μL growth medium. Bare cells were used as the negative control. After 24 h of incubation at 37 °C, 100 μL of NPs at 2.5 × 10^10 NP/mL in the corresponding cell culture medium were injected into the wells and incubated for 24 h and 48 h. After incubation, the culture medium was discarded, cells were washed with 10 mM PBS (pH 7.4) several times, and fresh culture medium (100 μL) containing 10 μL of CCK-8 reagent added to each well. After 2 h, the absorption at 450 nm of cell samples was measured with an UV-vis microplate absorbance reader (Bio-Rad model 689, USA). Cell viability (SR, survival rate) was calculated as follows: SR=Abssample/Absblank×100 where Abssample is the absorbance at 450 nm for cell samples, and Absblank is the absorbance corresponding to the sample controls without the particles.
(§4) For the determination of the half-maximal inhibitory concentration (IC50), a dose–response curve between the isatin derivatives’ concentrations and percent cell viability was plotted and fitted by means of a nonlinear least-squares fitting method (Microcal Origin 2021) to a four-parameter logistic equation: Y=min+((max−min)/1+10^((logIC50−X)×p)) where the original, %control or %survival data are represented by Y along their minimal (min) and maximal (max) values; the isatin derivative concentration is represented by X; IC50 is the concentration at 50% maximal value; and p is the slope factor.

[2] = tested on: cancerous cervical HeLa cells; assay: CCK8 antiproliferation / cytotoxicity assay in HeLa cells; type: cell-based, human; conditions: for IC50: CCK-8 assay, human cervical cancer HeLa cells; for specificity for tumoral cells: HeLa versus 3T3 Balb fibroblasts
Experimental: as §1, §2, §3, §4

cervical tumors = conditions: cited from earlier work
HBL-100 cell line = tested on: HBL-100 cell line; design: method as in doi:10.1002/ajoc.202100684; conditions: HBL-100 line; cited from earlier work
HeLa cell line = tested on: HeLa cell line; design: method as in doi:10.1002/ajoc.202100684; conditions: cited from earlier work
[3] = drugs used for recurrent and metastatic cervical cancer
[4] = Pt-based chemodrug, first line treatment of primary cervical tumors

Molecule: CCCCN(C(=O)CCl)C1(C(=O)NC(C)(C)C)C(=O)Nc2ccc([N+](=O)[O-])cc21 (stereo not drawn) [Compound 13, N-(tert-butyl)-3-(N-butyl-2-chloroacetamido)-5-nitro-2-oxoindoline-3-carboxamide]
- IC50 ([1]; Mus musculus): 4.8 ± 0.9 µM
- melting point: 179.5 to 179.8 °C
- IC50 ([2]; Homo sapiens, HeLa): 26.9 ± 1 µM

Molecule: COC(=O)/C=C/c1ccc2c(c1)C(=O)C(=O)N2CCC(=O)OC [Compound 30, methyl (E)-3-(1-(3-methoxy-3-oxopropyl)-2,3-dioxoindolin-5-yl)acrylate]
- IC50 ([1]; Mus musculus): 42.1 ± 2.7 µM
- melting point: 131 to 132 °C
- specificity for tumoral cells [2]: not showing fully specific toxic activity for cancerous cells
- IC50 ([2]; Homo sapiens, HeLa): 9.3 ± 0.8 µM

Molecule: CCOC(=O)Cn1cc(CN2C(=O)C(=O)c3cc(I)ccc32)nn1 [Compound 27]
- IC50 ([1]; Mus musculus): 7.3 ± 0.7 µM
- melting point: 158 to 159 °C
- IC50 ([2]; Homo sapiens, HeLa): 66.9 ± 8.9 µM

Molecule: CCCCN(C(=O)CCl)C1(C(=O)NC(C)(C)C)C(=O)Nc2c(Cl)cc(Cl)cc21 (stereo not drawn) [Compound 14, N-(tert-butyl)-3-(N-butyl-2-chloroacetamido)-5,7-dichloro-2-oxoindoline-3-carboxamide]
- IC50 ([1]; Mus musculus): 1.5 ± 0.3 µM
- melting point: 125 to 126 °C
- IC50 ([2]; Homo sapiens, HeLa): 14.1 ± 0.3 µM

Molecule: CCCCN(C(=O)C(F)(F)F)C1(C(=O)NC2CCCCC2)C(=O)Nc2ccc([N+](=O)[O-])cc21 (stereo not drawn) [Compound 21, 3-(N-butyl-2,2,2-trifluoroacetamido)-N-cyclohexyl-5-nitro-2-oxoindoline-3-carboxamide]
- IC50 ([1]; Mus musculus): 17 ± 0.7 µM
- melting point: 200 to 202 °C
- IC50 ([2]; Homo sapiens, HeLa): 12.4 ± 0.7 µM

Molecule: CCCCN(C(=O)C(F)(F)F)C1(C(=O)NC(C)(C)C)C(=O)Nc2ccc(I)cc21 (stereo not drawn) [Compound 17, N-(tert-butyl)-3-(N-butyl-2,2,2-trifluoroacetamido)-5-iodo-2-oxoindoline-3-carboxamide]
- IC50 ([1]; Mus musculus): 7.2 ± 0.5 µM
- melting point: 204 to 205 °C
- IC50 ([2]; Homo sapiens, HeLa): 33 ± 1.4 µM

Molecule: CC(=O)O[C@H]1C(=O)[C@@]2(C)[C@H]([C@H](OC(=O)c3ccccc3)[C@]3(O)C[C@H](OC(=O)[C@H](O)[C@@H](NC(=O)c4ccccc4)c4ccccc4)C(C)=C1C3(C)C)[C@]1(OC(C)=O)CO[C@@H]1C[C@@H]2O [paclitaxel]
- IC50 (cervical tumors; [3]): 21 µM

Molecule: COC(=O)/C=C/c1ccc2c(c1)C(=O)C(=O)N2Cc1ccc(I)cc1 [Compound 32, methyl (E)-3-(1-(4-iodobenzyl)-2,3-dioxoindolin-5-yl)acrylate]
- IC50 ([1]; Mus musculus): 32.1 ± 3.4 µM
- melting point: 228 to 230 °C
- IC50 ([2]; Homo sapiens, HeLa): 10.8 ± 0.9 µM

Molecule: O=C1C(=O)N(Cc2cn(Cc3ccccc3)nn2)c2ccccc21 [Compound 25]
- IC50 ([1]; Mus musculus): 100 ± 3.1 µM
- melting point: 175 to 177 °C
- IC50 ([2]; Homo sapiens, HeLa): 13.9 ± 4.5 µM

Molecule: CCCCN(C(=O)CCl)C1(C(=O)NC(C)(C)C)C(=O)Nc2ccc(Br)cc21 (stereo not drawn) [Compound 16, 5-Bromo-N-(tert-butyl)-3-(N-butyl-2-chloroacetamido)-2-oxoindoline-3-carboxamide]
- IC50 ([1]; Mus musculus): 1.5 ± 0.8 µM
- melting point: 180 to 182 °C
- IC50 ([2]; Homo sapiens, HeLa): 17.9 ± 1.3 µM

Molecule: CCCCN(C(=O)C(F)(F)F)C1(C(=O)NC2CCCCC2)C(=O)Nc2ccc(I)cc21 (stereo not drawn) [Compound 18, 3-(N-butyl-2,2,2-trifluoroacetamido)-N-cyclohexyl-5-iodo-2-oxoindoline-3-carboxamide]
- IC50 ([1]; Mus musculus): 8.5 ± 0.7 µM
- melting point: 218 to 220 °C
- IC50 ([2]; Homo sapiens, HeLa): 6.8 ± 0.5 µM

Molecule: COC(=O)/C=C/c1ccc(CN2C(=O)C(=O)c3cc(/C=C/C(=O)OC)ccc32)cc1 [Compound 33, methyl (E)-3-(4-((5-((E)-3-methoxy-3-oxoprop-1-en-1-yl)-2,3-dioxoindolin-1-yl)methyl)phenyl)acrylate]
- IC50 ([1]; Mus musculus): 12.6 ± 0.9 µM
- melting point: 188 to 190 °C
- specificity for tumoral cells [2]: high specificity for tumoral cells
- IC50 ([2]; Homo sapiens, HeLa): 1 ± 0.05 µM

Molecule: CCCCN(C(=O)CCl)C1(C(=O)NC(C)(C)C)C(=O)Nc2ccc(I)cc21 (stereo not drawn) [Compound 12, N-(tert-butyl)-3-(N-butyl-2-chloroacetamido)-5-iodo-2-oxoindoline-3-carboxamide]
- IC50 ([1]; Mus musculus): 1.3 ± 0.2 µM
- antiproliferative activity (HBL-100 cell line): potent antiproliferative activity
- melting point: 108.5 to 109.7 °C
- antiproliferative activity (HeLa cell line): potent antiproliferative activity
- specificity for tumoral cells [2]: not showing fully specific toxic activity for cancerous cells
- IC50 ([2]; Homo sapiens, HeLa): 8.3 ± 0.8 µM

Molecule: N.N.[Cl][Pt][Cl] [cisplatin]
- IC50 (cervical tumors; [4]): 15 µM

Molecule: CC[C@@]1(O)C(=O)OCc2c1cc1n(c2=O)Cc2cc3c(CN(C)C)c(O)ccc3nc2-1 [topotecan]
- IC50 (cervical tumors; [3]): 26 µM

Molecule: CCCCN(C(=O)C(F)(F)F)C1(C(=O)NC2CCCCC2)C(=O)Nc2ccc(Br)cc21 (stereo not drawn) [Compound 15, 5-bromo-3-(N-butyl-2,2,2-trifluoroacetamido)-N-cyclohexyl-2-oxoindoline-3-carboxamide]
- IC50 ([1]; Mus musculus): 28.3 ± 1.7 µM
- melting point: 209 to 210 °C
- IC50 ([2]; Homo sapiens, HeLa): 47.7 ± 1.2 µM

Molecule: N.N.O=C([O-])C1(C(=O)[O-])CCC1.[Pt+2] [carboplatin]
- IC50 (cervical tumors; [4]): 1000 µM

Molecule: CCCCN(C(=O)C(F)(F)F)C1(C(=O)NC(C)(C)C)C(=O)Nc2ccc(Br)cc21 (stereo not drawn) [Compound 19, 5-bromo-N-(tert-butyl)-3-(N-butyl-2,2,2-trifluoroacetamido)-2-oxoindoline-3-carboxamide]
- IC50 ([1]; Mus musculus): 7.8 ± 0.4 µM
- melting point: 198 to 200 °C
- IC50 ([2]; Homo sapiens, HeLa): 16.8 ± 1.7 µM

Molecule: O=C1C(=O)N(Cc2cn(Cc3ccccc3)nn2)c2ccc(I)cc21 [Compound 26]
- IC50 ([1]; Mus musculus): 21.5 ± 2 µM
- specificity for tumoral cells [2]: high specificity for tumoral cells
- IC50 ([2]; Homo sapiens, HeLa): 2.5 ± 0.4 µM

Molecule: CCCCN(C(=O)C(F)(F)F)C1(C(=O)NC(C)(C)C)C(=O)Nc2ccc([N+](=O)[O-])cc21 (stereo not drawn) [Compound 20, N-(tert-butyl)-3-(N-butyl-2,2,2-trifluoroacetamido)-5-nitro-2-oxoindoline-3-carboxamide]
- IC50 ([1]; Mus musculus): 25 ± 1.9 µM
- melting point: 178 to 180 °C
- IC50 ([2]; Homo sapiens, HeLa): 26 ± 1.9 µM

Molecule: COC(=O)/C=C/c1ccc2c(c1)C(=O)C(=O)N2Cc1ccccc1 [Compound 31]
- IC50 ([1]; Mus musculus): 3.5 ± 0.8 µM
- IC50 [2]: 8.8 ± 1.1 µM
- specificity for tumoral cells [2]: not showing fully specific toxic activity for cancerous cells
- IC50 ([2]; Homo sapiens, HeLa): 6.8 µM

Molecule: CCCCN(C(=O)CCl)C1(C(=O)NC2CCCCC2)C(=O)Nc2ccc(Br)cc21 (stereo not drawn) [Compound 22, 5-bromo-3-(N-butyl-2-chloroacetamido)-N-cyclohexyl-2-oxoindoline-3-carboxamide]
- IC50 ([1]; Mus musculus): 0.12 ± 0.01 µM
- melting point: 190.2 to 190.4 °C
- IC50 ([2]; Homo sapiens, HeLa): 27 ± 0.8 µM

Molecule: N-(tert-butyl)-3-(N-butyl-2-chloroacetamido)-1-methyl-2-oxoindoline-3-carboxamide [Compound 11]
- IC50 [1]: 7.3 ± 0.7 µM
- IC50 [2]: 40.1 ± 1.5 µM
